Measured values: the supplement of paper PMC10307832

How the values were obtained:
Assay in all cases: relative viability (nuclei count vs DMSO), 5 days (fraction); higher = more cells survive
[1] = compound: C=CCNC1=C2C[C@@H](C)C[C@H](OC)[C@H](O)[C@@H](C)/C=C(\C)[C@H](OC(N)=O)[C@@H](OC)/C=C\C=C(/C)C(=O)NC(=CC1=O)C2=O [17-AAG] + CC(=O)c1c(C)c2cnc(Nc3ccc(N4CCNCC4)cn3)nc2n(C2CCCC2)c1=O [Palbociclib] (partner 0.5 µM)
How it was run: (§1)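 For relative viability, nuclei counts in treated wells were divided by those in vehicle wells. Lung cancer cell lines had been pin-tool dosed in 1536-well plates the day after seeding and cultured for 5 days, then fixed and stained in one step (final 0.05% Triton X-100, 1% formaldehyde, 1 ug/ml Hoechst) and imaged at 4×. Doses were one drug alone or a fixed anchor-drug dose plus five library-drug doses (not always all listed) in √10 steps, and values are duplicate-plate medians.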

[2] = compound: C=CCNC1=C2C[C@@H](C)C[C@H](OC)[C@H](O)[C@@H](C)/C=C(\C)[C@H](OC(N)=O)[C@@H](OC)/C=C\C=C(/C)C(=O)NC(=CC1=O)C2=O [17-AAG] + C[C@@H](Oc1cc(-c2cnn(C3CCNCC3)c2)cnc1N)c1c(Cl)ccc(F)c1Cl [Crizotinib] (partner 1 µM)
How it was run: as §1

[3] = compound: C=CCNC1=C2C[C@@H](C)C[C@H](OC)[C@H](O)[C@@H](C)/C=C(\C)[C@H](OC(N)=O)[C@@H](OC)/C=C\C=C(/C)C(=O)NC(=CC1=O)C2=O [17-AAG] + NC(=O)Nc1cc(-c2cccc(F)c2)sc1C(=O)N[C@H]1CCCNC1 [AZD7762] (partner 0.2 µM)
How it was run: as §1

[4] = compound: C=CCNC1=C2C[C@@H](C)C[C@H](OC)[C@H](O)[C@@H](C)/C=C(\C)[C@H](OC(N)=O)[C@@H](OC)/C=C\C=C(/C)C(=O)NC(=CC1=O)C2=O [17-AAG] + O=C(CCCCCCC(=O)Nc1ccccc1)NO [Vorinostat] (partner 1 µM)
How it was run: as §1

NCI-H2087
relative viability ([1]; first compound 0.00128 µM): 0.315
relative viability ([1]; first compound 0.004048 µM): 0.179
relative viability ([1]; first compound 0.0128 µM): 0.185
relative viability ([1]; first compound 0.04048 µM): 0.0984
relative viability ([1]; first compound 0.128 µM): 0.108
relative viability ([2]; first compound 0.00128 µM): 0.861
relative viability ([2]; first compound 0.004048 µM): 0.66
relative viability ([2]; first compound 0.0128 µM): 0.321
relative viability ([2]; first compound 0.04048 µM): 0.213
relative viability ([2]; first compound 0.128 µM): 0.148
relative viability ([3]; first compound 0.00128 µM): 1.28
relative viability ([3]; first compound 0.004048 µM): 1.3
relative viability ([3]; first compound 0.0128 µM): 0.471
relative viability ([3]; first compound 0.04048 µM): 0.154
relative viability ([3]; first compound 0.128 µM): 0.116
relative viability ([4]; first compound 0.00128 µM): 0.996
relative viability ([4]; first compound 0.004048 µM): 0.656
relative viability ([4]; first compound 0.0128 µM): 0.252
relative viability ([4]; first compound 0.04048 µM): 0.116
relative viability ([4]; first compound 0.128 µM): 0.116

NCI-H2126
relative viability ([1]; first compound 0.00128 µM): 0.358
relative viability ([1]; first compound 0.004048 µM): 0.375
relative viability ([1]; first compound 0.0128 µM): 0.364
relative viability ([1]; first compound 0.04048 µM): 0.344
relative viability ([1]; first compound 0.128 µM): 0.349
relative viability ([2]; first compound 0.00128 µM): 1.08
relative viability ([2]; first compound 0.004048 µM): 1.02
relative viability ([2]; first compound 0.0128 µM): 1.01
relative viability ([2]; first compound 0.04048 µM): 0.951
relative viability ([2]; first compound 0.128 µM): 0.43
relative viability ([3]; first compound 0.00128 µM): 0.977
relative viability ([3]; first compound 0.004048 µM): 0.975
relative viability ([3]; first compound 0.0128 µM): 0.885
relative viability ([3]; first compound 0.04048 µM): 0.265
relative viability ([3]; first compound 0.128 µM): 0.231
relative viability ([4]; first compound 0.00128 µM): 0.865
relative viability ([4]; first compound 0.004048 µM): 0.933
relative viability ([4]; first compound 0.0128 µM): 0.782
relative viability ([4]; first compound 0.04048 µM): 0.199
relative viability ([4]; first compound 0.128 µM): 0.227

NCI-H2170
relative viability ([1]; first compound 0.00128 µM): 0.397
relative viability ([1]; first compound 0.004048 µM): 0.385
relative viability ([1]; first compound 0.0128 µM): 0.324
relative viability ([1]; first compound 0.04048 µM): 0.192
relative viability ([1]; first compound 0.128 µM): 0.115
relative viability ([2]; first compound 0.00128 µM): 1.29
relative viability ([2]; first compound 0.004048 µM): 1.19
relative viability ([2]; first compound 0.0128 µM): 0.959
relative viability ([2]; first compound 0.04048 µM): 0.588
relative viability ([2]; first compound 0.128 µM): 0.203
relative viability ([3]; first compound 0.00128 µM): 0.832
relative viability ([3]; first compound 0.004048 µM): 0.734
relative viability ([3]; first compound 0.0128 µM): 0.305
relative viability ([3]; first compound 0.04048 µM): 0.126
relative viability ([3]; first compound 0.128 µM): 0.128
relative viability ([4]; first compound 0.00128 µM): 0.837
relative viability ([4]; first compound 0.004048 µM): 0.827
relative viability ([4]; first compound 0.0128 µM): 0.336
relative viability ([4]; first compound 0.04048 µM): 0.169
relative viability ([4]; first compound 0.128 µM): 0.143

NCI-H2347
relative viability ([1]; first compound 0.00128 µM): 0.45
relative viability ([1]; first compound 0.004048 µM): 0.446
relative viability ([1]; first compound 0.0128 µM): 0.397
relative viability ([1]; first compound 0.04048 µM): 0.317
relative viability ([1]; first compound 0.128 µM): 0.322
relative viability ([2]; first compound 0.00128 µM): 0.747
relative viability ([2]; first compound 0.004048 µM): 0.791
relative viability ([2]; first compound 0.0128 µM): 0.738
relative viability ([2]; first compound 0.04048 µM): 0.486
relative viability ([2]; first compound 0.128 µM): 0.317
relative viability ([3]; first compound 0.00128 µM): 0.891
relative viability ([3]; first compound 0.004048 µM): 0.578
relative viability ([3]; first compound 0.0128 µM): 0.472
relative viability ([3]; first compound 0.04048 µM): 0.26
relative viability ([3]; first compound 0.128 µM): 0.22
relative viability ([4]; first compound 0.00128 µM): 0.569
relative viability ([4]; first compound 0.004048 µM): 0.557
relative viability ([4]; first compound 0.0128 µM): 0.524
relative viability ([4]; first compound 0.04048 µM): 0.329
relative viability ([4]; first compound 0.128 µM): 0.379

NCI-H2405
relative viability ([1]; first compound 0.00128 µM): 0.541
relative viability ([1]; first compound 0.004048 µM): 0.525
relative viability ([1]; first compound 0.0128 µM): 0.364
relative viability ([1]; first compound 0.04048 µM): 0.219
relative viability ([1]; first compound 0.128 µM): 0.174
relative viability ([2]; first compound 0.00128 µM): 0.868
relative viability ([2]; first compound 0.004048 µM): 0.837
relative viability ([2]; first compound 0.0128 µM): 0.922
relative viability ([2]; first compound 0.04048 µM): 0.303
relative viability ([2]; first compound 0.128 µM): 0.163
relative viability ([3]; first compound 0.00128 µM): 0.741
relative viability ([3]; first compound 0.004048 µM): 0.525
relative viability ([3]; first compound 0.0128 µM): 0.23
relative viability ([3]; first compound 0.04048 µM): 0.153
relative viability ([3]; first compound 0.128 µM): 0.143
relative viability ([4]; first compound 0.00128 µM): 1.08
relative viability ([4]; first compound 0.004048 µM): 0.994
relative viability ([4]; first compound 0.0128 µM): 0.391
relative viability ([4]; first compound 0.04048 µM): 0.209
relative viability ([4]; first compound 0.128 µM): 0.193

NCI-H3122
relative viability ([1]; first compound 0.00128 µM): 0.194
relative viability ([1]; first compound 0.004048 µM): 0.155
relative viability ([1]; first compound 0.0128 µM): 0.19
relative viability ([1]; first compound 0.04048 µM): 0.0911
relative viability ([1]; first compound 0.128 µM): 0.117
relative viability ([2]; first compound 0.00128 µM): 0.285
relative viability ([2]; first compound 0.004048 µM): 0.258
relative viability ([2]; first compound 0.0128 µM): 0.233
relative viability ([2]; first compound 0.04048 µM): 0.246
relative viability ([2]; first compound 0.128 µM): 0.173
relative viability ([3]; first compound 0.00128 µM): 0.93
relative viability ([3]; first compound 0.004048 µM): 0.873
relative viability ([3]; first compound 0.0128 µM): 0.214
relative viability ([3]; first compound 0.04048 µM): 0.161
relative viability ([3]; first compound 0.128 µM): 0.108
relative viability ([4]; first compound 0.00128 µM): 0.934
relative viability ([4]; first compound 0.004048 µM): 0.816
relative viability ([4]; first compound 0.0128 µM): 0.219
relative viability ([4]; first compound 0.04048 µM): 0.111
relative viability ([4]; first compound 0.128 µM): 0.0733

PC-3 [JPC-3]
relative viability ([1]; first compound 0.00128 µM): 0.575
relative viability ([1]; first compound 0.004048 µM): 0.57
relative viability ([1]; first compound 0.0128 µM): 0.551
relative viability ([1]; first compound 0.04048 µM): 0.463
relative viability ([1]; first compound 0.128 µM): 0.528
relative viability ([2]; first compound 0.00128 µM): 0.956
relative viability ([2]; first compound 0.004048 µM): 0.99
relative viability ([2]; first compound 0.0128 µM): 0.833
relative viability ([2]; first compound 0.128 µM): 0.91
relative viability ([3]; first compound 0.00128 µM): 0.776
relative viability ([3]; first compound 0.004048 µM): 0.8
relative viability ([3]; first compound 0.0128 µM): 0.888
relative viability ([3]; first compound 0.04048 µM): 0.541
relative viability ([3]; first compound 0.128 µM): 0.59
relative viability ([4]; first compound 0.00128 µM): 1
relative viability ([4]; first compound 0.004048 µM): 0.819
relative viability ([4]; first compound 0.0128 µM): 0.795
relative viability ([4]; first compound 0.04048 µM): 0.503
relative viability ([4]; first compound 0.128 µM): 0.8

PC-14
relative viability ([1]; first compound 0.00128 µM): 0.471
relative viability ([1]; first compound 0.004048 µM): 0.241
relative viability ([1]; first compound 0.0128 µM): 0.0966
relative viability ([1]; first compound 0.04048 µM): 0.0821
relative viability ([1]; first compound 0.128 µM): 0.0751
relative viability ([2]; first compound 0.00128 µM): 0.944
relative viability ([2]; first compound 0.004048 µM): 0.855
relative viability ([2]; first compound 0.0128 µM): 0.732
relative viability ([2]; first compound 0.04048 µM): 0.176
relative viability ([2]; first compound 0.128 µM): 0.124
relative viability ([3]; first compound 0.00128 µM): 0.288
relative viability ([3]; first compound 0.004048 µM): 0.293
relative viability ([3]; first compound 0.0128 µM): 0.144
relative viability ([3]; first compound 0.04048 µM): 0.0832
relative viability ([3]; first compound 0.128 µM): 0.129
relative viability ([4]; first compound 0.00128 µM): 0.683
relative viability ([4]; first compound 0.004048 µM): 0.464
relative viability ([4]; first compound 0.0128 µM): 0.0532
relative viability ([4]; first compound 0.04048 µM): 0.081
relative viability ([4]; first compound 0.128 µM): 0.056

RERF-LC-KJ
relative viability ([1]; first compound 0.00128 µM): 1.11
relative viability ([1]; first compound 0.004048 µM): 1.07
relative viability ([1]; first compound 0.0128 µM): 0.857
relative viability ([1]; first compound 0.04048 µM): 0.472
relative viability ([1]; first compound 0.128 µM): 0.219
relative viability ([2]; first compound 0.00128 µM): 0.894
relative viability ([2]; first compound 0.004048 µM): 0.831
relative viability ([2]; first compound 0.0128 µM): 0.901
relative viability ([2]; first compound 0.04048 µM): 0.616
relative viability ([2]; first compound 0.128 µM): 0.232
relative viability ([3]; first compound 0.00128 µM): 1
relative viability ([3]; first compound 0.004048 µM): 1.16
relative viability ([3]; first compound 0.0128 µM): 0.859
relative viability ([3]; first compound 0.04048 µM): 0.229
relative viability ([3]; first compound 0.128 µM): 0.118
relative viability ([4]; first compound 0.00128 µM): 0.796
relative viability ([4]; first compound 0.004048 µM): 0.686
relative viability ([4]; first compound 0.0128 µM): 0.475
relative viability ([4]; first compound 0.04048 µM): 0.321
relative viability ([4]; first compound 0.128 µM): 0.222
